Data on 14 molecules can be found in DBAASP.

Among the test systems are Acinetobacter baumannii; Bacillus subtilis; Escherichia coli; Staphylococcus aureus.
What all share (assay): ≥ marks a high value that may be exact or a test limit, other limits are often not marked, values filed in µg/mL are converted to µM
Test [1] relates to Escherichia coli ATCC 25922.
Test [2] concerns Pseudomonas aeruginosa ATCC 9027.
Test [3] concerns Candida albicans ATCC 10231.
In test [4] the test system is Staphylococcus aureus ATCC 6538.
For test [5], the system named is Candida albicans ATCC 90028.
For test [6], the system named is Staphylococcus aureus ATCC 25923.
Test [7] relates to Klebsiella pneumoniae ATCC 700603.
Test [8] concerns Staphylococcus aureus ATCC 29213.
Test [9] concerns Acinetobacter baumannii ATCC 19606.
For test [10], the system named is Enterococcus faecalis ATCC 29212.
For test [11], the system named is Candida albicans ATCC 2002.
The test system of test [12] is Bacillus subtilis ATCC 6633.
Test [13] deals with Staphylococcus epidermidis.

Structures are written as SMILES. In brackets after ≈: the same amount, converted by molar mass. Where only a bound is given, the exact number is not on record here.

As usually defined, the MIC is the lowest concentration that inhibits growth of the organism. Higher therefore signals weaker potency. `N[C@@H](CC(=O)O)C(=O)N[C@@H](Cc1ccc(O)cc1)C(=O)N[C@@H](CC(=O)O)C(=O)N[C@@H](CC(=O)O)C(=O)O` [DYDD]: the MIC was 34300 µM (≈ 18100 µg/mL) in test [1], 17200 µM (≈ 9040 µg/mL) in test [2] and 8580 µM (≈ 4520 µg/mL) in test [3].

For `CC(C)C[C@H](NC(=O)[C@H](C)NC(=O)[C@H](C)NC(=O)[C@H](CCCCN)NC(=O)[C@H](C)NC(=O)[C@H](CC(C)C)NC(=O)[C@H](CCCCN)NC(=O)[C@H](CCCCN)NC(=O)[C@H](C)NC(=O)[C@H](CC(C)C)NC(=O)[C@H](CCCCN)NC(=O)[C@H](CCCCN)NC(=O)[C@H](C)NC(=O)[C@@H](N)Cc1ccccc1)C(N)=O` [FAKKLAKKLAKAAL], the MIC was determined as 66.6 µM (≈ 99.9 µg/mL) in test [2] and 6.66 µM (≈ 9.99 µg/mL) in test [4].

`CC(C)C[C@H](NC(=O)[C@H](CCCCN)NC(=O)[C@H](CCCCN)NC(=O)[C@H](C)NC(=O)[C@H](CC(C)C)NC(=O)[C@H](CCCCN)NC(=O)[C@H](CCCCN)NC(=O)[C@H](CC(C)C)NC(=O)[C@H](CCCCN)NC(=O)[C@H](CCCCN)NC(=O)[C@H](C)NC(=O)[C@@H](N)Cc1ccccc1)C(N)=O` [FAKKLKKLAKKL]: the MIC in [2] turned out to be 141 µM (≈ 200 µg/mL); in test [4], 70.6 µM (≈ 99.9 µg/mL).

Take `CC[C@H](C)[C@H](NC(=O)[C@@H]1CCCN1C(=O)[C@H](CC(C)C)NC(=O)[C@@H](N)Cc1ccccc1)C(=O)N[C@@H](CC(C)C)C(=O)NCC(=O)N[C@@H](CCCCN)C(=O)N[C@@H](CC(C)C)C(=O)N[C@@H](CC(C)C)C(=O)N[C@@H](CO)C(=O)NCC(=O)N[C@@H](CC(C)C)C(=O)N[C@@H](CC(C)C)C(N)=O` [FLPILGKLLSGLL]: the minimum inhibitory concentration (MIC) in [1] was > 160 µM; in test [5], ≥ 80 µM; in [6], 10 µM (≈ 13.8 µg/mL).

On to `CC[C@H](C)[C@H](N)C(=O)N[C@@H](CC(C)C)C(=O)N[C@@H](CCCCN)C(=O)N1CCC[C@H]1C(=O)N[C@@H](CCCCN)C(=O)N[C@@H](CC(C)C)C(=O)N[C@@H](Cc1c[nH]c2ccccc12)C(=O)N[C@@H](CCCCN)C(=O)N[C@@H](CC(C)C)C(=O)N[C@H](C(=O)N[C@H](C(=O)N[C@H](C(=O)N[C@@H](C)C(=O)N[C@@H](CCCN=C(N)N)C(=O)N[C@@H](CCCCN)C(=O)N[C@H](C(=O)N[C@H](C(=O)N[C@@H](CCCCN)C(=O)O)[C@@H](C)CC)[C@@H](C)CC)C(C)C)C(C)C)[C@@H](C)O` [ILKPKLWKLTVVARKIIK], for which the minimal inhibitory concentration (MIC) in test [1] is 64 µM (≈ 137 µg/mL); in test [2], 64 µM (≈ 137 µg/mL); in test [7] it was > 64 µM; in test [6], > 64 µM; in the test with Acinetobacter baumannii, ≥ 64 µM.

As for `CC[C@H](C)[C@H](N)C(=O)N[C@@H](CC(N)=O)C(=O)N[C@@H](Cc1c[nH]c2ccccc12)C(=O)N[C@@H](CCCCN)C(=O)N[C@@H](CCCCN)C(=O)NCC(=O)N[C@@H](CCCCN)C(=O)N[C@@H](CCC(=O)O)C(=O)N[C@H](C(=O)N[C@@H](CC(C)C)C(=O)N[C@@H](CCCCN)C(=O)N[C@@H](C)C(=O)N[C@@H](CC(C)C)C(N)=O)C(C)C` [INWKKGKEVLKAL], the MIC with Bacillus subtilis is ≥ 100 µM; with Escherichia coli, > 100 µM.

With `CC[C@H](C)[C@H](NC(C)=O)C(=O)N[C@@H](CC(N)=O)C(=O)N[C@@H](Cc1c[nH]c2ccccc12)C(=O)N[C@@H](CC(C)C)C(=O)N[C@@H](CCCCN)C(=O)N[C@@H](CC(C)C)C(=O)NCC(=O)N[C@@H](CCCCN)C(=O)N[C@@H](CCCCN)C(=O)N[C@@H](CC(C)C)C(=O)N[C@@H](CC(C)C)C(=O)N[C@@H](CO)C(=O)N[C@@H](C)C(=O)N[C@@H](CC(C)C)C(N)=O` [INWLKLGKKLLSAL], the MIC is 25 µM (≈ 41 µg/mL) in the test with Bacillus subtilis and > 100 µM in the test with Escherichia coli.

As to `CC[C@H](C)[C@H](N)C(=O)N[C@@H](CC(N)=O)C(=O)N[C@@H](Cc1c[nH]c2ccccc12)C(=O)N[C@@H](CO)C(=O)N[C@@H](CO)C(=O)N[C@H](C(=O)N[C@@H](Cc1ccccc1)C(=O)N[C@@H](CCC(=O)O)C(=O)N[C@@H](CCCCN)C(=O)N[C@H](C(=O)N[C@@H](CCCCN)C(=O)N[C@@H](CC(N)=O)C(=O)N[C@@H](CC(C)C)C(=O)N[C@H](C(N)=O)C(C)C)C(C)C)[C@@H](C)CC` [INWSSIFEKVKNLV], the MIC is ≥ 40 µM in the test on Bacillus subtilis and 35 µM (≈ 58.7 µg/mL) against Escherichia coli.

As for `CC(C)C[C@H](NC(=O)[C@H](CCCCN)NC(=O)[C@H](CCCCN)NC(=O)[C@H](C)NC(=O)[C@H](CC(C)C)NC(=O)[C@H](CCCCN)NC(=O)[C@H](CCCCN)NC(=O)[C@H](CC(C)C)NC(=O)[C@H](CCCCN)NC(=O)[C@H](CCCCN)NC(=O)[C@H](C)NC(=O)[C@H](CC(C)C)NC(=O)[C@H](CCCCN)NC(=O)[C@H](CCCCN)NC(=O)[C@H](C)NC(=O)[C@H](Cc1ccccc1)NC(=O)[C@H](CCCCN)NC(=O)[C@H](CCCCN)NC(=O)[C@H](Cc1ccccc1)NC(=O)[C@H](CC(C)C)NC(=O)[C@H](CCCCN)NC(=O)[C@@H](NC(=O)[C@@H](N)CCCCN)[C@@H](C)O)C(=O)O` [KTKLFKKFAKKLAKKLKKLAKKL], the MIC in test [2] stood at 36.6 µM (≈ 100 µg/mL); in [4], 3.66 µM (≈ 10 µg/mL).

Regarding `CC[C@H](C)[C@H](NC(=O)[C@H](CCCN=C(N)N)NC(=O)[C@H](CC(C)C)NC(=O)[C@@H](NC(=O)[C@H](Cc1ccccc1)NC(=O)[C@H](CCCN=C(N)N)NC(=O)[C@H](C)NC(=O)[C@@H](N)CC(C)C)C(C)C)C(=O)N[C@@H](CC(C)C)C(=O)N[C@@H](CCCCN)C(=O)N[C@@H](Cc1ccc(O)cc1)C(=O)NCC(=O)N[C@@H](Cc1ccccc1)C(=O)N[C@@H](CCCCN)C(=O)O` [LARFVLRILKYGFK], the MIC in [1] came to 64 µM (≈ 110 µg/mL); in test [2], 64 µM (≈ 110 µg/mL); in test [7] it was 64 µM (≈ 110 µg/mL); in test [6] it was 32 µM (≈ 55.2 µg/mL); against Acinetobacter baumannii it was 8 µM (≈ 13.8 µg/mL).

As for `CC[C@H](C)[C@H](NC(=O)[C@@H](NC(=O)[C@H](CO)NC(=O)[C@@H]1CCCN1C(=O)[C@@H](NC(=O)[C@@H](NC(=O)[C@H](CO)NC(=O)[C@H](CO)NC(=O)[C@H](CC(C)C)NC(=O)[C@H](C)NC(=O)[C@H](CO)NC(=O)[C@H](CC(C)C)NC(=O)[C@H](C)NC(=O)[C@H](C)NC(=O)CNC(=O)[C@H](CC(C)C)NC(=O)[C@@H](N)CC(C)C)C(C)C)[C@@H](C)CC)C(C)C)C(=O)N[C@@H](CO)C(=O)N[C@@H](Cc1c[nH]c2ccccc12)C(=O)N[C@@H](Cc1ccccc1)C(=O)N[C@@H](CCC(N)=O)C(=O)N[C@@H](CCCCN)C(N)=O` [LLGAALSALSSVIPSVISWFQK], the MIC is 4 µM (≈ 9.15 µg/mL) in test [8]; > 64 µM in [1]; 32 µM (≈ 73.2 µg/mL) in test [9]; 16 µM (≈ 36.6 µg/mL) in [10]; 8 µM (≈ 18.3 µg/mL) with Staphylococcus aureus.

In the case of `CC[C@H](C)[C@H](NC(=O)[C@@H](NC(=O)[C@@H](NC(=O)[C@@H]1CCCN1C(=O)[C@H](Cc1c[nH]c2ccccc12)NC(=O)[C@H](Cc1ccccc1)NC(=O)[C@H](CCCN=C(N)N)NC(=O)[C@H](CCCCN)NC(=O)[C@@H](NC(=O)[C@@H](N)CCCN=C(N)N)[C@@H](C)CC)C(C)C)C(C)C)C(=O)N[C@@H](CCCN=C(N)N)C(=O)N[C@H](C(=O)N[C@H](C(=O)N[C@H](C(=O)N[C@@H](C)C(=O)NCC(=O)N[C@@H](Cc1ccc(O)cc1)C(=O)N[C@@H](CC(N)=O)C(=O)N[C@@H](CC(C)C)C(=O)O)C(C)C)C(C)C)[C@@H](C)O` [RIKRFWPVVIRTVVAGYNL], the MIC in test [1] is 87.4 µM (≈ 200 µg/mL); in [11] it was ≥ 32.8 µM.

For `NCCCC[C@H](NC(=O)[C@H](CCCCN)NC(=O)[C@H](Cc1c[nH]c2ccccc12)NC(=O)[C@H](CCCCN)NC(=O)[C@H](Cc1ccccc1)NC(=O)[C@H](CCCN=C(N)N)NC(=O)[C@H](Cc1c[nH]c2ccccc12)NC(=O)[C@@H](N)CCCN=C(N)N)C(=O)O` [RWRFKWKK], the minimum inhibitory concentration (MIC) is > 81 µM in test [1], ≥ 81 µM in [12], > 81 µM in test [6] and > 81 µM in [3].

For the molecule `CC[C@H](C)[C@H](NC(=O)[C@H](CO)NC(=O)[C@@H](NC(=O)[C@H](CCCCN)NC(=O)[C@H](Cc1ccccc1)NC(=O)[C@@H]1CCCN1C(=O)[C@@H](N)[C@@H](C)O)[C@@H](C)CC)C(=O)N[C@@H](Cc1cnc[nH]1)C(=O)N[C@@H](CC(C)C)C(=O)NCC(=O)NCC(=O)N[C@@H](Cc1ccc(O)cc1)C(N)=O` [TPFKISIHLGGY], the MIC in [13] was ≥ 150 µM.
